Measurements published in paper PMC9563435, “Comparison of Different Clinical Chemotherapeutical Agents’ Toxicity and Cell Response on Mesenchymal Stem Cells and Cancer Cells” (Cells, 2022).
pIC50: −log10 of the molar value. Entries after “also recorded” stand apart in the source; their conditions may differ. Structures can show the parent of a compound that is named as a salt.

Legend:
Ad-MSC 3 cells [1] = test: Apoptosis assay (Annexin V / TO-PRO-3 flow cytometry), Ad-MSC 3; format: cell-based, human; conditions: for apoptosis induction in MSCs (in words): several concentrations, data not shown; for type of cell death in MSCs (in words): high concentrations: doxorubicin 1 µM, nutlin-3 50 µM
Protocol: Apoptosis detection was based on the Annexin-V molecule binding to phosphatidylserine membrane molecules. Two cell lines were used to study apoptosis: Ad-MSC 3 cells were plated in a 5 × 10^4 cells/well concentration, while 4 × 10^4/well A431-mCh were seeded into each well in a 12-well tissue culture plate. […] At day 5, cells were trypsinized and centrifuged, while the supernatant was also collected and combined with the detached cells to include all already dead cells. Cells were washed twice with 500 µL of 1% BSA-PBS (bovine serum albumin dissolved in PBS, A8022, Sigma-Aldrich, St. Louis, MO, USA) solution and centrifuged at 400× G for 4 min. Cells were resuspended in 100 µL of 1× Annexin Binding Buffer (422201, Biolegend, San Diego, CA, USA), and 3 µL of Annexin V-Pacific Blue (A35122, Biolegend, San Diego, CA, USA) and 1 µL of TO-PRO-3 (R37170, Invitrogen, Waltham, MA, USA) were added to each sample. After 15 min of incubation, labeled and non-labeled samples were diluted 5-fold with 1× Annexin Binding Buffer and analyzed by Attune™ NxT flow cytometer.

[2] = system: 6 MSCs and 3 cancer cell lines; test: Cytotoxicity / cell viability assay (PrestoBlue), panel of MSCs and cancer cell lines; format: cell-based, human; conditions: for drug sensitivity of MSCs compared with cancer cells (in words): IC50 comparison
Protocol: (§1) Cells were seeded in a 96-well tissue culture plate in 100 µL of medium. Ad-MSC-GFP 1, iAd-MSC-GFP 1, Ad-MSC-GFP 2, Ad-MSC-GFP 3, BM-MSC, and HFF were seeded at 5 × 10^3/100 µL/well density and A431-mCh, MES-SA-mCh, and MCF-7-GFP at 4 × 10^3 cells/100 µL/well concentration in DMEM-F12 media. Different initial cell numbers were used due to different proliferation rates of different cell types. Cells were allowed to attach overnight at 37 °C and the day after were treated with the drugs using the indicated concentrations in 100 µL. Cell viability was measured by using PrestoBlue™ Cell Viability Reagent (A13232, Invitrogen, Waltham, MA, USA). To address metabolic differences between cancer cells and MSCs, the assay was optimized for each cell line, cells were incubated with 5 or 12.5% PrestoBlue™ Cell Viability Reagent diluted in PBS at 37 °C/5% CO2 for 1–1.5 h 5 days after the treatment. The fluorescence signal was measured by an EnSpire (Perkin Elmer, Waltham, MA, USA) fluorometer at 555 nm (excitation)/585 nm (emission) wavelength.
After the incubation period, the relative fluorescence data was measured. The data was normalized with the fluorescence of blank samples (cell culture media). A sigmoidal dose–response curve was fitted to the normalized measurement data and the logarithm of the concentration using the least square method. An inhibitory concentration of 50% (IC50 and log10) was interpolated from the fitted graph. […] In these cases, IC50 was calculated from the line connecting the measurement points. For repeated measurements, average and standard deviation was calculated based on the logarithm of the IC50 values.
To compare the mean IC50 values of six mesenchymal stem cell lines (Group-1) and three cancer cell lines (Group-2), first an F-test was performed to check equal variances between the groups, then two-sample unpaired t-tests were performed to calculate significance using Microsoft® Excel® 2016 (16.0.4266.1001).

Ad-MSC 3 cells [3] = test: ROS induction (DCFH-DA), Ad-MSC 3; format: cell-based, human; conditions: 1 h
Protocol: (§2) Ad-MSC 3 and A431 cells were seeded in a 96-well tissue culture plate and incubated for 24 h as described above. Cells were washed twice with HBSS and incubated in 100 µL of DCFH-DA dye (R252-10, Dojindo) according to the manufacturer’s instructions. Cells were incubated for 30 min at 37 °C and washed twice with HBSS. […] Supernatant was removed, and the cells were washed with HBSS before imaging with the JuLI^TM Stage Cell History Recorder (NanoEnTek).

A431-mCh cells [4] = test: γ-H2AX staining of DNA double-stranded breaks, A431-mCh; format: cell-based, human; conditions: 120 h; IC50 concentrations of A431 (2 µM cisplatin, 0.1 µM doxorubicin, 30 µM nutlin-3)
Protocol: (§3) Ad-MSC-GFP 3 cells were seeded into glass-bottomed chamber slides (ibidi, Germany, Grafelfing, Germany) at 1 × 10^4/well and A431-mCh at 1.6 × 10^4/well density. […] Cells in all chambers were fixed with 4% PFA for 15 min and washed twice with PBS. Blocking solution (0.5% BSA-PBS, 0.1% TritonX-100, 5% goat serum, and 1% fish gelatin) was used for 1 h. γ-H2A.X primary antibody (MA1-2022, Invitrogen, United States) was diluted in blocking solution at 1:500 concentration and incubated overnight at 4 °C. Afterwards, the cells were washed with PBS twice and goat anti-mouse A633 secondary antibody (A21052, abcam, Cambridge, UK) was diluted at 1:250 concentration in blocking solution. Nuclei was stained with a Hoechst-33342 (23491-52-3, Dojindo, Kumamoto, Japan) at 1:1000 concentration.
(§4) To quantify DNA damage based on immunofluorescence against γ-H2AX, a semi-automated image analysis pipeline was set up using CellProfiler v4.1.3 [10]. First, images showing DAPI-stained nuclei were pre-processed by intensity normalization and Gaussian filtering (ϭ = 20 px) to suppress noise and remove artifacts caused by debris. Nuclei candidates were identified by threshold-based segmentation; false candidates were removed from the analysis manually. Using the remaining nuclei regions as masks, pixel intensities were measured on the γ-H2AX channel, thus, excluding non-nuclei signals.

A431 cells [5] = test: Cell proliferation (CytoTell) and light microscopy after treatment, A431; format: cell-based, human; conditions: 0.1 µM
Protocol: (§5) Cell division was analyzed by the fluorescent CytoTell Green dye (AAT Bioquest, Sunnyvale, CA, USA) according to the manufacturer’s guidelines. Briefly, 3 × 10^5 cells were centrifuged and stained with 2 µL of CytoTell dye diluted in 1 mL of serum-free DMEM and incubated at 37 °C for 30 min. After centrifugation, half of the cells (1.5 × 10^5) were plated into T25 cell culture flasks in 5 mL of media and analyzed at day 5. Day 1 samples were co-stained with Zombie Violet dye (423113, Biolegend) to exclude dead cells and analyzed by Attune™ NxT flow cytometry. Brightfield images were taken with the Olympus IX51 microscope. The scale bar is the same in every image.

Ad-MSC-GFP 3 cells [6] = test: γ-H2AX staining of DNA double-stranded breaks, Ad-MSC-GFP 3; format: cell-based, human; conditions: 120 h; IC50 concentrations of A431 (2 µM cisplatin, 0.1 µM doxorubicin, 30 µM nutlin-3)
Protocol: as §3, §4

Ad-MSC 3 cells [7] = test: Cell proliferation (CytoTell) and light microscopy after treatment, Ad-MSC 3; format: cell-based, human; conditions: 0.1 µM
Protocol: as §5

A431 cells [8] = test: ROS induction (DCFH-DA), A431; format: cell-based, human; conditions: 1 h
Protocol: as §2

Ad-MSC-GFP 3 cells [9] = test: Cytotoxicity / cell viability assay (PrestoBlue) on Ad-MSC-GFP 3; format: cell-based, human; conditions: Homo sapiens, 120 h; Ad-MSC-GFP 3 / Ad-MSC 3, 5 days
Protocol: as §1
(§6) After the incubation period, the relative fluorescence data was measured. The data was normalized with the fluorescence of blank samples (cell culture media). […] In these cases, IC50 was calculated from the line connecting the measurement points. For repeated measurements, average and standard deviation was calculated based on the logarithm of the IC50 values.

Ad-MSC-GFP 3 cells [10] = test: Live cell imaging, confluency, Ad-MSC-GFP 3; format: cell-based, human
Protocol: (§7) JuLI™ Stage Cell History Recorder was used to monitor a five-day cytotoxicity assay on Ad-MSC-GFP 3 and A431-mCh cell lines. […] Images were taken every 105 min for 120 h at 10× objective magnification. Live cell microscopy studies were evaluated using the “Growth curve” function of the JuLI STAT image analysis software (v2.0.1.0).

A431-mCh cells [11] = test: Live cell imaging, confluency, A431-mCh; format: cell-based, human; conditions: 120 h
Protocol: as §7

A431 cells [12] = test: Apoptosis assay (Annexin V / TO-PRO-3 flow cytometry), A431; conditions: 120 h
A431-mCh cells [13] = test: Cytotoxicity / cell viability assay (PrestoBlue) on A431; format: cell-based, human
Protocol: as §1, §6

[14] = different concentrations incl. higher

## CN[C@@H]1C[C@H]2O[C@@](C)([C@@H]1OC)n1c3ccccc3c3c4c(c5c6ccccc6n2c5c31)C(=O)NC4 [staurosporine]
Ad-MSC 3 cells [1]
  apoptosis induction in MSCs (in words): not able to induce apoptosis

## [Cl][Co][Cl] [cobalt chloride]
Ad-MSC 3 cells [1]
  apoptosis induction in MSCs (in words): not able to induce apoptosis

## CCc1c2c(nc3ccc(OC(=O)N4CCC(N5CCCCC5)CC4)cc13)-c1cc3c(c(=O)n1C2)COC(=O)[C@]3(O)CC [irinotecan, irinotecan hydrochloride]
[2]; 5 days treatment
  drug sensitivity of MSCs compared with cancer cells (in words): required significantly higher concentrations to kill MSCs than cancer cells

## c1ccc(CN(CCN(Cc2ccccn2)Cc2ccccn2)Cc2ccccn2)nc1 [TPEN]
[2]; 5 days treatment
  drug sensitivity of MSCs compared with cancer cells (in words): equally toxic to both MSCs and cancer cells

## COc1cccc2c1C(=O)c1c(O)c3c(c(O)c1C2=O)C[C@@](O)(C(=O)CO)C[C@@H]3O[C@H]1C[C@H](N)[C@H](O)[C@H](C)O1 [doxorubicin, doxorubicin hydrochloride]
Ad-MSC 3 cells [3]; [14]
  ROS induction: did not induce ROS
A431-mCh cells [4]
  DNA damage (γ-H2AX): massive DNA damage
[2]; 5 days treatment
  drug sensitivity of MSCs compared with cancer cells (in words): equally toxic to MSCs and cancer cells
A431 cells [5]
  cell killing (light microscopy): killed most of the cancer cells
A431 cells [5]; five-day treatment
  proliferation (CytoTell): decreased proliferation
Ad-MSC-GFP 3 cells [6]
  DNA double-stranded breaks (γ-H2AX): no DNA break was detected
Ad-MSC 3 cells [7]
  cell number (light microscopy): reduced cell number
Ad-MSC 3 cells [7]; five-day treatment
  proliferation (CytoTell): decreased proliferation
A431 cells [8]; [14]
  ROS induction: did not induce ROS
Ad-MSC-GFP 3 cells [9]
  pIC50: 7.00
Ad-MSC-GFP 3 cells [10]; 120 h of treatment
  decrease of cultures in live cell imaging: no significant decrease
A431-mCh cells [11]; IC50 of A431-mCh and 10-fold higher concentration
  number of viable colonies in live cell imaging: significantly reduced the number of viable colonies
A431-mCh cells [11]; concentration 10-fold lower than A431-mCh IC50
  growth kinetics in live cell imaging: did not alter growth kinetics
A431 cells [12]; 0.1 µM
  apoptosis (in words): apoptosis in almost all A431 cells
Ad-MSC 3 cells [1]; 0.1 µM, 120 h
  apoptosis (in words): apoptosis was not detected
Ad-MSC 3 cells [1]; concentration increased 10-fold (1 µM), 120 h
  apoptosis / cell death (in words): only late necrosis was found
Ad-MSC 3 cells [1]
  type of cell death in MSCs (in words): necrotic cell death
A431-mCh cells [13]; Homo sapiens, A-431, 120 h, A431, 5 days
  pIC50: 7.00

## OO [H2O2]
Ad-MSC 3 cells [1]
  apoptosis induction in MSCs (in words): not able to induce apoptosis

## Cn1nnc2c(C(N)=O)ncn2c1=O [temozolomide]
[2]; Homo sapiens, all cell lines of the screening, read-out: toxic concentration in the IC50 screening (not toxic even at)
  pIC50: < 3.00

## CC[C@]1(O)C[C@@H]2CN(CCc3c([nH]c4ccccc34)[C@@](C(=O)OC)(c3cc4c(cc3OC)N(C)[C@H]3[C@@](O)(C(=O)OC)[C@H](OC(C)=O)[C@]5(CC)C=CCN6CC[C@]43[C@@H]65)C2)C1 [vinblastine]
[2]; 5 days treatment
  drug sensitivity of MSCs compared with cancer cells (in words): required significantly higher concentrations to kill MSCs than cancer cells
[2]; 5 days treatment, MSCs higher than cancer cells
  IC50 values in MSCs relative to cancer cells: 1000 fold

## CN(Cc1cnc2nc(N)nc(N)c2n1)c1ccc(C(=O)N[C@@H](CCC(=O)O)C(=O)O)cc1 [methotrexate]
[2]; 5 days treatment
  drug sensitivity of MSCs compared with cancer cells (in words): only toxic to A431-mCherry cells
A431-mCh cells [13]; compared with the other cell lines
  sensitivity of A431 cells (in words): extreme sensitivity; also recorded: hypersensitive

## COc1ccc(C2=N[C@@H](c3ccc(Cl)cc3)[C@@H](c3ccc(Cl)cc3)N2C(=O)N2CCNC(=O)C2)c(OC(C)C)c1 [nutlin-3]
Ad-MSC 3 cells [3]; 30 µM
  ROS induction: considerable amount of ROS
A431-mCh cells [4]
  DNA damage (γ-H2AX): massive DNA damage
Ad-MSC-GFP 3 cells [6]
  DNA double-stranded breaks (γ-H2AX): no DNA break was detected
A431 cells [8]; 30 µM
  ROS induction: considerable amount of ROS
Ad-MSC-GFP 3 cells [10]; 120 h live cell imaging
  concentration at which significant drops in confluency were seen, as multiple of Ad-MSC-GFP 3 IC50: 3 fold
A431-mCh cells [11]; either concentration, p53 mutant
  effect on cultures in live cell imaging: no effect
A431 cells [12]; 30 µM
  apoptosis (in words): modest apoptotic response
Ad-MSC 3 cells [1]; 30 µM, 120 h
  apoptosis (in words): only a slight increase in the number of apoptotic MSCs
Ad-MSC 3 cells [1]
  type of cell death in MSCs (in words): necrotic cell death

## O=C1c2c(O)ccc(O)c2C(=O)c2c(NCCNCCO)ccc(NCCNCCO)c21 [mitoxantrone]
[2]; 5 days treatment
  drug sensitivity of MSCs compared with cancer cells (in words): required significantly higher concentrations to kill MSCs than cancer cells
Ad-MSC 3 cells [1]
  apoptosis induction in MSCs (in words): not able to induce apoptosis
